Experimental data from US11542264B2, “Heteroaromatic NMDA receptor modulators and uses thereof” (Cadent Therapeutics, Inc., priority 2018, dated 2023).
In brackets after ≈: the same amount, converted by molar mass. Entries after “also recorded” stand apart in the source; their conditions may differ. Read-outs that look alike come from different tables or passages of the source. One block for each molecule: values may come before it.

Experiments:
[1] = Human liver microsome stability; assay type: in vitro ADME
Source text: (§1) The liver is the most important site of drug metabolism in the body. Approximately 60% of marketed compounds are cleared by hepatic CYP-mediated metabolism (McGinnity, D. F.; Soars, M. G.; Urbanowicz, R. A. and Riley, R. J.; Drug Metab. Disp. 32, 1247, (2004)). Liver microsomes are subcellular fractions which contain membrane bound drug metabolizing enzymes. Microsomes can be used to determine the in vitro intrinsic clearance of a compound. The use of species-specific microsomes can be used to enable an understanding of interspecies differences.

[2] = Rat IV pharmacokinetic study, in vivo clearance
Source text: Rat microsomal stability data is provided as well. These improvements in in vitro and in vivo clearance are advantageous because reduced clearance, in one aspect, is anticipated to provide enhanced in vivo performance in humans.

[3] = tested on: impairment of MMN by MK-801; assay: Mismatch negativity (MMN) efficacy model; conditions: rat, 60 mg/kg BID, MK-801 0.2 mg/kg IP
Method: Rats implanted with frontal EEG electrodes were presented with different audio stimuli comprising an auditory oddball “flip-flop” protocol. Briefly, 1,000 standard tones of 6.0 kHz were delivered at 90% probability, and 100 deviant tones of 8.0 kHz were delivered at 10% probability in pseudo-random order (the flip sequence), and then this sequence was then repeated with the 8 kHz tone as the standard, and the 6 kHz tone as the deviant (the flop sequence). MMN is calculated as a difference potential obtained by subtracting the averaged 8 kHz standard tone response (flop) from the averaged 8 kHz deviance tone response (flip) at each 1 ms time point over the EEG recording epochs from 50 ms prior to 150 ms after the onset of these 50 ms auditory tones.
Test sessions were comprised of three 20-minute flip-flop blocks.

[4] = Rat liver microsome stability; assay type: in vitro ADME; conditions: for half-life: rat, liver microsomes, read-out: Rat liver microsome (RLM) stability t1/2
Source text: as §1

[5] = target: T1, hNR2D (Homo sapiens, UniProt O15399); assay: Oocyte 2EVC NR2D PAM activity; assay type: cell-based
T1 construct: expressed in transfected cells
Source text: (§2) EC50 refers to the concentration of a compound that gives half-maximal response.

[6] = target: T2, hNR2D (Homo sapiens, UniProt O15399+Q05586); assay: Oocyte 2EVC NR2D PAM activity; assay type: cell-based; conditions: oocytes expressing hNR2D, 10 μM glutamate and 10 μM glycine
T2 construct: expressed in transfected cells
Source text: as §2

[7] = tested on: PCP-induced cognitive impairment; assay: Rat Novel Object Recognition (NOR) test, PCP-induced cognitive impairment; conditions: oral
Method: Rats were treated twice daily for 7 days with either saline vehicle (control group) or PCP (5 mg/kg, intraperitoneal). Following a 14-day washout period of no treatment, rats were tested in the NOR paradigm. Briefly, testing involves two sessions (T1 and T2), each lasting 3 minutes, 1 hour apart. […] In T1, rats are placed in a test arena with two identical objects and allowed to freely explore while their time spent exploring each object is recorded. In T2, rats are returned to the test arena where one of the objects remains the same and the other has been replaced with a novel object. The time spent exploring the novel object versus the time spent exploring the familiar object are recorded and compared to T1 object exploration times.

[8] = Aqueous solubility, shake-flask method; assay type: physicochemical; conditions: phosphate buffer saline, pH 7.4, shake-flask, HPLC-UV
Method: The aqueous solubility of the test compound was determined in phosphate buffer saline, pH 7.4, measured by shake-flask method. In this assay, DMSO stock solution of test compound was added to buffer followed by equilibration (shaking), filtration, and determination of soluble amount by HPLC-UV. […] Other imidazopyrazinone comparators from WO 2017/100591 are provided for reference. All comparator analogs are active and potency data is available in WO 2017/100591. This improvement is advantageous because improved aqueous solubility, in one aspect, is anticipated to provide enhanced in vivo performance in humans.

[9] = target: T3, hNR2C (Homo sapiens, UniProt Q14957); assay: Oocyte 2EVC NR2C PAM activity; assay type: cell-based
T3 construct: expressed in transfected cells
Source text: as §2

[10] = target: T4, hNR2B (Homo sapiens, UniProt Q05586+Q13224); assay: Oocyte 2EVC NR2B PAM activity; assay type: cell-based
T4 construct: expressed in transfected cells
Source text: as §2

[11] = target: T5, hNR2B (Homo sapiens, UniProt Q13224); assay: Oocyte 2EVC NR2B PAM activity; assay type: cell-based
T5 construct: expressed in transfected cells
Source text: as §2

[12] = tested on: MDR1-transfected MDCK cells; assay: MDCK permeability and efflux assay; assay type: in vitro ADME
Source text: (§3) Monolayer systems consist of a tight cell layer grown on a porous support to separate two fluid compartments. They are widely regarded as the most sophisticated in vitro tools for medium to high throughput modeling of important pharmacokinetic barriers, such as intestinal epithelium, blood-brain barrier, etc. (J. Pharm Sci. 2012 April; 101(4): 1337-1354). Two systems that are applied widely in monolayer studies are the human colon carcinoma cell line Caco-2 and MDR1-transfected MDCKII and LLC-PK1 cells. In monolayer assays, the flux of a compound through the monolayer of cells is measured. The unidirectional flux of the compound of interest is determined by applying it to either the apical or to the basolateral side of the cell layer and monitoring the time resolved redistribution of it between the two compartments. The vectorial transport ratio (often referred to as Efflux Ratio) is determined by applying bidirectional measurements [apical-to-basolateral (A-B) and basolateral-to-apical (B-A)]. […] In the absence of such transport processes this ratio is approximately 1.

[13] = tested on: MDR1; assay: MDCK permeability and efflux assay; assay type: in vitro ADME; conditions: dog, MDR1-transfected MDCK cells
Source text: as §3

[14] = tested on: NMDA receptor; conditions: cited from earlier work; for % response recovered with Ro 25-6981 and DCKA: Table 49 of WO 2017/100591; for Maximum measured potentiation (%) with Ro 25-6981 and DCKA: comparator examples from WO 2017/100591
[15] = 10 μM glutamate and 10 μM glycine
[16] = 100% potentiation = doubling of current induced by glutamate/glycine
[17] = Table 4, read-out: Oocyte 2EVC NR2B PAM: EC50
[18] = Table 1, read-out: Oocyte 2EVC NR2B PAM: EC50

T4 sequence (Q13224 27-1484, other chains not shown): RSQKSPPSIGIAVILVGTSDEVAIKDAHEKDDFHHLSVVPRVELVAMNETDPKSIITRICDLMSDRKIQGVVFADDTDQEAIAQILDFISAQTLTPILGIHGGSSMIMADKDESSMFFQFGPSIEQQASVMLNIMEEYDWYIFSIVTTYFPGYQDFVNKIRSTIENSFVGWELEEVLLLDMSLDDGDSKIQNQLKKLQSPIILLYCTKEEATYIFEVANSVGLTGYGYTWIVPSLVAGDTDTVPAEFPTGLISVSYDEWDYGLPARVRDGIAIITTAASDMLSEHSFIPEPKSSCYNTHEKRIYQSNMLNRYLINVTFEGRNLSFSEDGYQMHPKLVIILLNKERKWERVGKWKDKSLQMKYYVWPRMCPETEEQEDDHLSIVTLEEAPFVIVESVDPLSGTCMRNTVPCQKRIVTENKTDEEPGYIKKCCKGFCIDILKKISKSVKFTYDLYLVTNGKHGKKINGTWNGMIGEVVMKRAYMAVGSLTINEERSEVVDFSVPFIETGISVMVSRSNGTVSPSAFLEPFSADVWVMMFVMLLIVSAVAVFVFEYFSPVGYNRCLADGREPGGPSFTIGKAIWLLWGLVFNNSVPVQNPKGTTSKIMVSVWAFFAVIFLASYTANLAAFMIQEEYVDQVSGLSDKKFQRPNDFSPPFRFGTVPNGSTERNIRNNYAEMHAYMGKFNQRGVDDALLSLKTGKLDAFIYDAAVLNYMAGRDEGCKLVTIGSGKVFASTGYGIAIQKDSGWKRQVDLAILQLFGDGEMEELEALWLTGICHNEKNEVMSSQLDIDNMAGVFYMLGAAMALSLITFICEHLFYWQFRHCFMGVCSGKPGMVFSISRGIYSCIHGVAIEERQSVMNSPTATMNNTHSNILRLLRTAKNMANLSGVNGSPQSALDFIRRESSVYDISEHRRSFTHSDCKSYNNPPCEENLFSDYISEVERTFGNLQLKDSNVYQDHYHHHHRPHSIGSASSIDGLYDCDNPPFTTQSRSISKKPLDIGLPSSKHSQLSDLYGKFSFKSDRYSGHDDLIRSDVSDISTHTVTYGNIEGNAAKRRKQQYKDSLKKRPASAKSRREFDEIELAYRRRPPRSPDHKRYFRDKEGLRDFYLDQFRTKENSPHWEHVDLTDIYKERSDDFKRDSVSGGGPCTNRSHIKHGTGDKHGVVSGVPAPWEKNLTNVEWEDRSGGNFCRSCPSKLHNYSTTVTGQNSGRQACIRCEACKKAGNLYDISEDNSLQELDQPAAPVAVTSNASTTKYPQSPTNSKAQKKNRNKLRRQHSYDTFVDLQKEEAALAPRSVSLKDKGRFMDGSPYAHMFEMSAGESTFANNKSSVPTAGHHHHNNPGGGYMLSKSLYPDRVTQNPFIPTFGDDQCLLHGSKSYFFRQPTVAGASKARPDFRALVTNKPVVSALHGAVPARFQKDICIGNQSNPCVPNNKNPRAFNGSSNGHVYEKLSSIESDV
T3 sequence (Q14957 20-1233, other chains not shown): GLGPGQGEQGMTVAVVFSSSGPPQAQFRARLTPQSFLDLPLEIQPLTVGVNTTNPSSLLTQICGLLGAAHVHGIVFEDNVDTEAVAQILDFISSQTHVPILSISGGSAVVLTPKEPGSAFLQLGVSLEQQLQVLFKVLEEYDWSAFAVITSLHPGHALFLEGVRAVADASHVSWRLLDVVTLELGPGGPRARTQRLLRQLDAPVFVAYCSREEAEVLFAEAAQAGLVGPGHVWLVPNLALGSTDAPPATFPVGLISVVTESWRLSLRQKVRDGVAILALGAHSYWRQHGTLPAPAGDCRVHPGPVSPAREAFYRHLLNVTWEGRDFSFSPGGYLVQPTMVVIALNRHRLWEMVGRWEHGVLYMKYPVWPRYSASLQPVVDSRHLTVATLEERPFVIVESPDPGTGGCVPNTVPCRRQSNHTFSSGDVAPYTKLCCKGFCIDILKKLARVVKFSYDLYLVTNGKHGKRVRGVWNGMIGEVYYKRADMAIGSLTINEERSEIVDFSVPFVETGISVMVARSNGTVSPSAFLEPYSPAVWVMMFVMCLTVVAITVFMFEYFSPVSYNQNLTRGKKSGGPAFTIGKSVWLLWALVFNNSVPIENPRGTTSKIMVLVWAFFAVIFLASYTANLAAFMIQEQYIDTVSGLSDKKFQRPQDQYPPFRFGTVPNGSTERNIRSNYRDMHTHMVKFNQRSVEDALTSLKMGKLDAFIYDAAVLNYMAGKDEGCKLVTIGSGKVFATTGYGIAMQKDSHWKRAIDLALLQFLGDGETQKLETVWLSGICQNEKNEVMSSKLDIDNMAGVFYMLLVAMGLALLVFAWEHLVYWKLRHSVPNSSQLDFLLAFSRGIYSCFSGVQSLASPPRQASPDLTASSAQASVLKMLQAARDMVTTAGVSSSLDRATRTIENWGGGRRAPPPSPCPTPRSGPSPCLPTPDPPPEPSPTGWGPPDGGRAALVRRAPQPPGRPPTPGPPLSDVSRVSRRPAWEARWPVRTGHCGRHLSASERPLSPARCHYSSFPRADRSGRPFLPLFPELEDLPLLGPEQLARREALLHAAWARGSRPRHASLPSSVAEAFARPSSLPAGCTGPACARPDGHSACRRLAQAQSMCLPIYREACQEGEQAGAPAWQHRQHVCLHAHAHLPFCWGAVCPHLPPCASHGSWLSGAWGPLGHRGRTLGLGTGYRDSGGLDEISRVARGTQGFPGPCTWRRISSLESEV
T1 sequence (O15399 28-1336, other chains not shown): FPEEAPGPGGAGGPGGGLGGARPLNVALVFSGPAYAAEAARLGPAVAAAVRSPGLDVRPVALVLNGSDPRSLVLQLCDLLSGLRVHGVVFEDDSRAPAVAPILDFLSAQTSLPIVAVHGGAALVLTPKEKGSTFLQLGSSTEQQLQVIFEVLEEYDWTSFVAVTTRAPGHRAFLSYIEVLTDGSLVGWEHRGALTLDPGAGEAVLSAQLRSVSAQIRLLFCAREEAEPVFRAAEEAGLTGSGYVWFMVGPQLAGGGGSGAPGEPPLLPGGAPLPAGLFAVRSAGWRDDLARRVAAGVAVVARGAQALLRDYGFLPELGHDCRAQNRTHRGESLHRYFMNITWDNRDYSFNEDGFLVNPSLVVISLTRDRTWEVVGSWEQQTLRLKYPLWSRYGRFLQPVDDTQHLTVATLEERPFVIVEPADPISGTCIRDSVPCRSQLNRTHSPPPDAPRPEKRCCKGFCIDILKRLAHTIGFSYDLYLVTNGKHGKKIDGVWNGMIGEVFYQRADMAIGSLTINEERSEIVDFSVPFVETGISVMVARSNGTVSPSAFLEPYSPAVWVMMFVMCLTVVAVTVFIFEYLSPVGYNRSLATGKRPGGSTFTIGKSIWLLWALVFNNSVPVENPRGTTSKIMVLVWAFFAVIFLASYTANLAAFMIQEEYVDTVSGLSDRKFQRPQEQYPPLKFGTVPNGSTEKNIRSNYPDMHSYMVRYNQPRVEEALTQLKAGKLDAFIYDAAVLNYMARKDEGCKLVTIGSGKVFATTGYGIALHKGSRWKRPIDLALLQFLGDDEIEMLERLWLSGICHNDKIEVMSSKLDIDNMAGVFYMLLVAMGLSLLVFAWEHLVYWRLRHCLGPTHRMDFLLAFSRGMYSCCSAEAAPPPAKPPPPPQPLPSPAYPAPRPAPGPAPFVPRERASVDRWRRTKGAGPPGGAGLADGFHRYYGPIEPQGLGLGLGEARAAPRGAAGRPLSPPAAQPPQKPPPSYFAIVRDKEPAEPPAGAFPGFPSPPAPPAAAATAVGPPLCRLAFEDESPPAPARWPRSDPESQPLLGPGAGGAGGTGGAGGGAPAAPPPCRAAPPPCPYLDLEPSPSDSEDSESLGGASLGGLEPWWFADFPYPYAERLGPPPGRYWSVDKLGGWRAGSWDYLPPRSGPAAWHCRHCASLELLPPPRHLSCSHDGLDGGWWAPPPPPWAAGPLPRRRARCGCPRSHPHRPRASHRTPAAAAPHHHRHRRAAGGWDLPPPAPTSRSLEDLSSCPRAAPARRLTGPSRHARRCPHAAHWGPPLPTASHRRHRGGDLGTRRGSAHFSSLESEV
T2 sequence (O15399 28-1336, other chains not shown): as above

SMILES: CC1(F)CN(C(=O)Cn2cnc3c(c(-c4ccc(F)c(Cl)c4)cn3C3CC3)c2=O)C1 [Compound 1, 5-(3-chloro-4-fluorophenyl)-7-cyclopropyl-3-(2-(3-fluoro-3-methylazetidin-1-yl)-2-oxoethyl)-3,7-dihydro-4H-pyrrolo[2,3-d]pyrimidin-4-one]
- stability in Human Liver Microsomes (in words) [1]: good stability
- HLM % Metabolized after 30 min ([1]; human liver microsomes, 30 min): 34.3%
- microsomal CLint ([1]; human liver microsomes, read-out: HLM mCLint): 27.3 µL/min/mg
- half-life ([1]; human liver microsomes, read-out: HLM t1/2): 50.8 min
- clearance [2]: 7.4 mL/min/kg
- MMN after Compound 1 plus MK-801 [3]: prevented impairment of MMN by MK-801
- stability in Rat Liver Microsomes (in words) [4]: excellent stability
- Rat liver microsome (RLM) stability t1/2 ([4]; Table 4): >120 min
- RLM t1/2 ([4]; rat liver microsomes): >120 min
- RLM % Metabolized after 30 min ([4]; rat liver microsomes, 30 min): 1.83%
- microsomal CLint ([4]; rat liver microsomes, read-out: RLM mCLint): < 5 µL/min/mg
- half-life ([4]; Table 4): > 120 min
- Oocyte 2EVC NR2D PAM: Concentration Required for Current Doubling [5, 15]: 165 nM
- Oocyte 2EVC NR2D PAM: Avg Max % Potentiation [5, 16]: 1700%
- EC50 [6]: 1890 nM
- reversal of PCP-induced deficit in novel object exploration time ([7]; 0.3 mg/kg): significantly reversed this deficit
- reversal of PCP-induced deficit in novel object exploration time ([7]; 1.0 mg/kg): significantly reversed this deficit; also recorded: fully-reversed the PCP-induced deficit
- solubility ([8]; pH 7.4, aqueous buffer, kinetic from dmso stock): 29 µM (≈ 12.6 µg/mL)
- Oocyte 2EVC NR2C PAM: Concentration Required for Current Doubling [9, 15]: 120 nM
- Oocyte 2EVC NR2C PAM: Avg Max % Potentiation [9, 16]: 1800%
- EC50 ([9]; oocytes expressing hNR2C, 10 μM glutamate and 10 μM glycine): 1200 nM
- EC50 ([10]; oocytes expressing hNR2B, 5 μM glutamate and 3 μM glycine, read-out: Oocyte 2EVC NR2B PAM: Avg EC50): 446 nM
- Oocyte 2EVC NR2B PAM: Concentration Required for Current Doubling ([11]; 5 μM glutamate and 3 μM glycine): 160 nM
- Oocyte 2EVC NR2B PAM: Avg Max % Potentiation [11, 16]: 478%
- efflux in the MDCK efflux assay (in words) ([12]; MDCK): not subject to efflux
- membrane penetration (in words) ([12]; MDCK): penetrates membranes well
- A-B MDCK Permeability ([12]; apical-to-basolateral, MDR1-transfected MDCK cells): 32.3 10^−6 cm/sec
- B-A MDCK Permeability ([12]; basolateral-to-apical, MDR1-transfected MDCK cells): 32.1 10^−6 cm/sec
- Papp A→B ([13]; MDCK-MDR1, apical-to-basolateral): 32 ×10⁻⁶ cm/s
- Papp B→A ([13]; MDCK-MDR1, basolateral-to-apical): 32 ×10⁻⁶ cm/s

SMILES: O=C(Cn1ccc2scc(-c3ccc(F)c(Cl)c3)c2c1=O)N1CCCC1 [Example 3]
- clearance [2]: 43.6 mL/min/kg
- half-life ([4]; Table 4): 47.2 min
- EC50 [10, 17]: 7010 nM

SMILES: O=C(Cn1ccc2scc(-c3cnc(Cl)c(Cl)c3)c2c1=O)N1CCC(F)C1 (centres unmarked) [Example 12]
- clearance [2]: 19.4 mL/min/kg
- half-life ([4]; Table 4): 200 min
- EC50 [10, 17]: 5630 nM

SMILES: O=C(Cn1cnc2[nH]cc(-c3ccc(F)c(C(F)(F)F)c3)c2c1=O)N1CCC(F)C1 (centres unmarked) [Example 174]
- EC50 [10, 18]: 1500 nM
- % response recovered with Ro 25-6981 and DCKA [14]: 91%
- Maximum measured potentiation (%) with Ro 25-6981 and DCKA [14]: 124%

SMILES: O=C(Cn1cnc2[nH]cc(-c3ccc(Cl)c(C(F)(F)F)c3)c2c1=O)N1C[C@@H](F)[C@@H](F)C1 [Example 181]
- EC50 [10, 18]: 1190 nM
- % response recovered with Ro 25-6981 and DCKA [14]: 69%
- Maximum measured potentiation (%) with Ro 25-6981 and DCKA [14]: 129%

SMILES: CC1(F)CN(C(=O)Cn2ccc3c(c(-c4ccc(F)c(Cl)c4)cn3C3CC3)c2=O)C1 [Example 285]
- clearance [2]: 22.2 mL/min/kg
- half-life ([4]; Table 4): 37.8 min
- EC50 [10, 17]: 200 nM
- potency in the Ro 25-6981/DCKA assay (in words) ([14]; data of WO 2017/100591): excellent potency

SMILES: CC1(F)CN(C(=O)Cn2ccn3ccc(-c4ccc(Cl)c(Cl)c4)c3c2=O)C1 [Example 396]
- clearance [2]: 23.4 mL/min/kg
- half-life ([4]; Table 4): 75 min
- EC50 [10, 17]: 589 nM

SMILES: CC1(F)CN(C(=O)Cn2ccn3ccc(-c4ccc(F)c(Cl)c4)c3c2=O)C1 [Example 397]
- clearance [2]: 46.2 mL/min/kg
- half-life ([4]; Table 4): 37.3 min
- EC50 [10, 17]: 1210 nM

SMILES: Cc1nc(-c2ccc(F)c(Cl)c2)c2c(=O)n(CC(=O)N3CC(C)(F)C3)ccn12 [Example 426]
- Aqueous solubility [8]: 20 µM

Continued, values first:

- clearance [2]: 35.5 mL/min/kg
- half-life ([4]; Table 4): 37.8 min
- EC50 [10, 17]: 3530 nM
SMILES: O=C(Cn1ccc2scc(-c3ccc(F)c(Cl)c3)c2c1=O)N1CCC(F)C1 (centres unmarked) [Example 9]

- clearance [2]: 27.8 mL/min/kg
- half-life ([4]; Table 4): 42 min
- EC50 [10, 17]: 726 nM
SMILES: CC1(F)CN(C(=O)Cn2ccc3scc(-c4ccc(F)c(Cl)c4)c3c2=O)C1 [Example 39]

- clearance [2]: 26.9 mL/min/kg
- half-life ([4]; Table 4): 36 min
- EC50 [10, 17]: 463 nM
SMILES: CC1(F)CN(C(=O)Cn2ccc3scc(-c4ccc(Cl)c(Cl)c4)c3c2=O)C1 [Example 42]

- clearance [2]: 29.4 mL/min/kg
- half-life ([4]; Table 4): 60.8 min
- EC50 [10, 17]: 441 nM
SMILES: CC1(F)CN(C(=O)Cn2ccc3scc(-c4ccc(F)c(C(F)(F)F)c4)c3c2=O)C1 [Example 43]
